Measured values from patent US8691528B2, “Cell penetrating peptide” (Mitsubishi Tanabe Pharma Corporation, priority 2005, dated 2014).
“Also recorded” adds a separate entry of the source.

Columns and labels:
Type in all cases: cell-based
[1] = test system: HeLa cells; assay: Confocal microscopic analysis of intracellular translocation of synthetic peptides in HeLa cells
Protocol: (§1) Three kinds of cells were used for incorporating the peptides: CHO cells (ATCC NO. CCL-61), HeLa cells, and Jurkat cells. 10^4 CHO cells and HeLa cells and 10^5 Jurkat cells were separately inoculated to a 96-well plate, and cultured for 2 or 3 days. Subsequently, when the cells became confluent, each peptide solution was added to each type of cell, and the cells were incubated for 1 hour. After each type of cell was washed with PBS three times, 100 μL of 0.25% trypsin-1 mM EDTA solution was added, and trypsinization was performed at room temperature for 5 minutes. After 400 μL of PBS (10% FCS) was added to neutralize the trypsin, the cells were washed with 1 mL of HBSS (Hanks' Balanced Salt Solution/produced by Invitrogen) three times. After the washing, the cells were suspended in 50 μL of HBSS and analyzed using a confocal microscope. Measurements and analysis were performed using a confocal differential interference laser microscope system (Bio-Rad, Radience2100/Green He-Ne, 488 nm, microscope: Nikon, ECLIPSE E600).
In HeLa cells as with CHO cells, intracellular translocation experiments of synthetic peptides of modified PTD sequences were performed by confocal microscopic analysis.

[2] = test system: Jurkat cells; assay: Confocal microscopic analysis of intracellular translocation of synthetic peptides in Jurkat cells
Protocol: as §1
In Jurkat cells as well, intracellular translocation experiments of synthetic peptides of modified PTD sequences were performed by confocal microscopic analysis.

[3] = test system: CHO cells; assay: Test of translocation of fluorescence-labeled peptides into CHO cells (FACS and confocal microscopic analysis); settings: for intracellular translocation compared with KSH1 (in words): 12.5 μM and 6.5 μM
Protocol: Each peptide solution, adjusted to 1 mM, was diluted with a medium to three levels, 100 μM, 50 μM, and 25 μM, and added to cells. Three kinds of cells were used: CHO cells, HeLa cells, and Jurkat cells. After each peptide solution was added, the cells were incubated for 1 hour. After the cells were washed with PBS three times, 100 μL of 0.25% trypsin-1 mM EDTA solution was added, and trypsinization was performed at room temperature for 5 minutes. After 400 μL of PBS (10% FCS) was added to stop the trypsinization, the cells were washed with 1 mL of HBSS three times. After the washing, the cells were suspended in 500 μL of PBS (10% FCS) and subjected to flowcytometry (hereinafter, FACS) analysis using FACS Calibur (Becton Dickinson).
Each peptide was synthesized, fluorescently labeled, purified and dissolved in the same manner as Example 1-2, a test of translocation into CHO cells was performed, and an evaluation was performed by confocal microscopic analysis and FACS. FACS analysis was performed in the same manner as Example 1-3. For the KSH1 peptide and modified PTD sequences, i.e., KSH1-1 to KSH1-9 peptides (SEQ ID NOS:1 to 9 in the sequence listing), fluorescence intensities determined by FACS analysis are shown in FIG. 6. The peptide addition concentrations were 50 μM, 25 μM, 12.5 μM and 6.5 μM.
To determine which amino acids are important to the intracellular translocation, comprehensive alanine substitution was performed on the basis of KSH1-1 to design KSH1-11 (SEQ ID NO:11 in the sequence listing) to KSH1-23 (SEQ ID NO:22 in the sequence listing) and KSH1-35 (SEQ ID NO:32 in the sequence listing) (FIG. 7). Each peptide was synthesized, fluorescently labeled, purified and dissolved in the same manner as Example 1-2, a test of translocation into CHO cells was performed, and an evaluation was performed by confocal microscopic analysis and FACS. FACS analysis was performed in the same manner as Example 1-3. For KSH1 and modified PTD sequences, i.e., KSH11-11 to 23 and KSH1-35, fluorescence intensities determined by FACS analysis are shown in FIG. 8. The peptide addition concentrations were 50 μM, 25 μM, 12.5 μM and 6.5 μM.
(§2) Each peptide was synthesized, fluorescently labeled, purified and dissolved in the same manner as Example 1-2, a test of translocation into CHO cells was performed, and an evaluation was performed by confocal microscopic analysis and FACS analysis. FACS analysis was performed in the same manner as Example 1-3. For KSH1 and modified PTD sequences, i.e., KSH11-24 to 1-26 and KSH1-28 to 1-30, fluorescence intensities determined by FACS analysis are shown in FIG. 10. The peptide addition concentrations were 50 μM, 25 μM, 12.5 μM and 6.5 μM.
as §2, with “KSH1-27, KSH1-33, KSH1-34” for “KSH11-24 to 1-26”, “KSH1-36,” for “KSH1-28 to 1-30,”, “12.” for “10.”
Each peptide was synthesized, fluorescently labeled, purified and dissolved in the same manner as Example 1-2, and an intracellular translocation test in CHO cells was performed by FACS analysis. Used for positive control were a PTD sequence derived from HIV TAT ([…] in the sequence listing) and the KSH1 peptide; used for negative control was a peptide sequence lacking intracellular transferability (SEQ ID NO:57 in the sequence listing).

[4] = test system: CHO cells; assay: as above; settings: FACS
[5] = test system: CHO cells, HeLa cells, and Jurkat cells; assay: Confocal microscopic analysis of intracellular translocation of fluorescence-labeled peptides; settings: fluorescence-labeled peptide, confocal microscope
Text: With the PTD derived from HIV TAT protein shown by SEQ ID NO:50 in the sequence listing as the positive control (in FIG. 1 to FIG. 3, denoted by “Positive” or “TAT”), and a mutant of the TAT-derived PTD shown by SEQ ID NO:51 in the sequence listing, reported by Ulo Langel et al. (Cell-Penetrating Peptides: Processes and Applications, Series: Pharmacology and Toxicology: Basic and Clinical Aspects Volume:3, 2002), as the negative control (in FIG. 1, denoted by “Negative”), the peptides of the 11 sequences selected in Example 1-1 were evaluated.
The peptides of the 11 sequences selected in Example 1-1 were synthesized by the solid phase method, and fluorescently labeled by coupling 5,6-Carboxyfluorescein to the N-terminus of each peptide. Furthermore, the peptides were purified by HPLC to obtain a purity of 70% or more. Subsequently, each fluorescently labeled peptide was dissolved in 10% Dimethyl Sulfoxide (DMSO) to obtain 1 mM (hereinafter referred to as peptide solution).
as §1
Of the novel PTD sequences found in Example 5, the KSH2 peptide is highly capable of translocating eGFP into cells; an attempt was made to modify the KSH2 peptide. The KSH2-1 to KSH2-4 peptides (SEQ ID NOS:44 to 47 in the sequence listing) were synthesized, fluorescently labeled, purified and dissolved in the same manner as Example 1-2, a test of translocation into CHO cells was performed, and confocal microscopic analysis was performed.
First, two cases were examined: two cysteines were substituted with alanine (KSH2-1) or with tryptophan (KSH2-2). FITC-labeled peptides were synthesized, and their intracellular translocation efficiencies were examined using CHO, HeLa, and Jurkat cells (FIG. 21, the peptide addition concentration was 50 μM, 25 μM or 12.5 μM).

[6] = test system: CHO cells; assay: Confocal microscopic analysis of translocation of fluorescence-labeled peptides into CHO cells
Protocol: as §1
Furthermore, CHO cells were inoculated to a slide chamber (produced by Nunc), 25 μM of each of the KSH1 peptide and positive control was added to the CHO cells, and the intracellular transferability thereof was determined using a confocal microscope.
For KSH2 to KSH10 (SEQ ID NOS:35 to 43 in the sequence listing), a test of translocation into CHO cells was performed in the same manner as Example 1-2, and confocal microscopic analysis was performed. Used for positive control were a PTD sequence derived from HIV TAT (SEQ ID NO:50 in the sequence listing) and the KSH1 peptide; used for negative control was a peptide sequence lacking intracellular transferability (SEQ ID NO:57 in the sequence listing).
In the confocal microscopic analysis, a background correction was performed using cells to which the negative control peptide (SEQ ID NO:57 in the sequence listing) had been added. Thereafter, the positive control PTD1 peptide (SEQ ID NO:50 in the sequence listing) was added, and fluorescence in the cells was examined.
Regarding novel PTD sequence, each peptide was analyzed in a series of 2-fold dilutions at three levels from 50 μM to 12.5 μM. […] The PTD candidate sequences identified here clearly retained the capability of intracellular translocation.

Substance: KSH1-1: KSH1 with the lysine of the lysine/arginine cluster substituted with arginine (RLWMRWYSPTTRRYG; Designed peptide to act as PTD(Protein Transduction Domain))
- intracellular translocation in HeLa cells (modified peptides with better translocation) ([1]; confocal microscopic analysis): better intracellular translocation
- intracellular translocation in Jurkat cells as compared to that of SEQ ID NO:37 [2]: better intracellular translocation
- intracellular translocation compared with KSH1 (in words) ([3]; 50 μM, 25 μM): clearly accentuated intracellular translocation
- intracellular translocation compared with KSH1 ([3]; FACS, 12.5 μM): about 8 times
- intracellular translocation compared with KSH1 ([3]; FACS, 25 μM): about 2 times
- decrease of translocation efficiency compared with KSH1 ([3]; FACS, 50 μM): about 20%
- intracellular translocation compared with KSH1 ([4]; 6.25 μM): about 2 times

Substance: KSH1-7: KSH1 with threonine substituted with tryptophan to form a tryptophan cluster (KLWMRWYSPWTRRYG; Designed peptide to act as PTD(Protein Transduction Domain))
- intracellular translocation in HeLa cells compared with CHO cells ([1]; confocal microscopic analysis): lower
- intracellular translocation in Jurkat cells as compared to that of SEQ ID NO:37 [2]: better intracellular translocation
- intracellular translocation compared with KSH1 (in words) ([3]; 50 μM, 25 μM): accentuated remarkably; also recorded: clearly accentuated intracellular translocation
- intracellular translocation compared with KSH1 ([3]; FACS, 12.5 μM): not less than 10 times
- intracellular translocation compared with KSH1 ([4]; between 25 μM and 6.15 μM): not less than 3 times

Substance: KSH1: novel PTD candidate sequence of 15 amino acids selected from the random peptide library (KLWMRWYSPTTRRYG; Designed peptide to act as PTD(Protein Transduction Domain))
- localization of the intracellularly transported peptide [5]: detected both in the nucleus and in cytoplasm
- fluorescence from the peptide in the cells ([5]; incubated 1 hour): fluorescence from the KSH1 peptide was observed
- fluorescence intensity compared with the positive control (PTD derived from HIV TAT, SEQ ID NO:50) ([5]; incubated 1 hour): higher than the fluorescence intensity of the positive control
- intracellular transferability among the peptides of the 11 selected sequences ([5]; incubated 1 hour): highest intracellular transferability
- translocation into CHO cells ([6]; slide chamber, 25 μM): translocated into all CHO cells

Substance: KSH2: novel PTD sequence from the 7-time-concentrated library of Jurkat cells (WKCRRQCFRVLHHWN; Designed peptide to act as PTD(Protein Transduction Domain))
- intracellular translocation profile compared with PTD1 ([6]; Example 5-2, 50 μM to 12.5 μM (FIG. 19: 25 μM)): better intracellular translocation profiles than PTD1
- localization of the peptide in HeLa cells ([1]; Example 5-2): localized as fringing the surface of the cell membrane
